{"source": "patent US8697685B2", "about": "“Chemical compounds” (GlaxoSmithKline LLC, priority 2008, dated 2014)", "data": [{"biological_target": "T1, full length PDK1 (Homo sapiens, UniProt O15530)", "T1 construct": "Full-length human 3-Phosphoinositide Dependent protein Kinase-1; made in house; host or cells: baculovirus / Sf9 insect cells", "T1 sequence (O15530 1-556)": "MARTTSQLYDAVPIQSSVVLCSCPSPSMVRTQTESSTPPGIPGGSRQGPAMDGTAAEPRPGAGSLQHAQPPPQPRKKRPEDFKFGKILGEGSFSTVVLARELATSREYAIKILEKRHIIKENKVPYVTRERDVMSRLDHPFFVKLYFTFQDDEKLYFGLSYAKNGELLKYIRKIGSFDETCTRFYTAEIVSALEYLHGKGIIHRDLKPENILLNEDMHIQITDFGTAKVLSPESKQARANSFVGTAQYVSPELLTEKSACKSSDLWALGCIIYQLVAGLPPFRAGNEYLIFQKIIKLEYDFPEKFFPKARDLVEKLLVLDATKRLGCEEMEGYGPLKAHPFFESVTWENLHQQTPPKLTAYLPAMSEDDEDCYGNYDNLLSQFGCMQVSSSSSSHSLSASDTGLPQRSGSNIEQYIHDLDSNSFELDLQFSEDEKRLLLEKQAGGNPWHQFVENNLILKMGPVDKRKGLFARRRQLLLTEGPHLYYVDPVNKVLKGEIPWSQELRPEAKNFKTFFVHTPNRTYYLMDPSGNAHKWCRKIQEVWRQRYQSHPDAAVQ", "assay": "PDK1 enzyme assays (substrate phosphorylation: LEADseeker scintillation proximity, TR-FRET, PDKtide)", "type": "biochemical", "details": "in at least one experimental run, read-out: IC50 against full length PDK1", "method": "Substrate phosphorylation assays are carried out as follows:\nBiotinylated-hAKT1: Human AKT1 (containing amino acid residues 136-480, as annotated by National Center for Biotechnology Information (NCBI) accession number AAL55732.1, with a MetLysLysHis6 N-terminal addition) is purified to >90% from lysate of baculovirus expression by Nickel Chelating ProBond resin (InVitrogen), Q-Sepharose Fast Flow, and Superdex 200 size exclusion chromatography. Biotinylation is achieved using EZ-Link Sulfo-NHS-LC Biotin (Pierce). Samples, in 25 mM HEPES, pH 7.5, 200 mM NaCl, 2 mM DTT, and 30% glycerol are stored at −80C until use.\nFull-length human 3-Phosphoinositide Dependent protein Kinase-1 (hPDK1; National Center for Biotechnology Information (NCBI) accession number AAH39158.1 with a MetGlyHis6 N-terminal addition) is purified from baculovirus expression in Sf9 cells. Purity of approximately 80% is achieved by the use of chelation chromatography (Ni-NTA Superflow) and desalting columns. Samples, in 25 mM HEPES, 150 mM NaCl, 2.5 mM DTT, 0.05% Triton, 30% glycerol, pH 8.0, are stored at −80° C. until use.\nThe 39 amino acid biotinylated-PDKtide peptide Seq. ID No. 1: (Biotin-Ahx-[…]) was custom synthesized by 21st Century Biochemicals. […] The concentration was confirmed by quantitative amino acid analysis.\nScintillation Proximity (LEADseeker) Kinase Assay of Purified hPDK1:\nAssays are performed in 384-well microtiter plates (Greiner, Catalog No. 784075). The reaction volume (10 μl) contains, in final concentrations, 25 mM MOPS (pH 7.5), 10 mM MgCl2, 50 mM KCl, 0.1 mg/ml BSA, 1 μM ATP, 3 uCi/ml ^33PγATP, 5 mM DTT, 1 mM CHAPS or 0.05% Tween20, 0.35 μM AKT1 biotinylated protein, and 10 nM hPDK1.\nCompounds, titrated in DMSO, are evaluated at eleven concentrations ranging from 50 μM to 2 μM. […] Reactions are stopped after 3 hours at room temperature by the addition of 50 mM EDTA, 5 mg/ml LEADseeker beads (GE Healthcare) in PBS (10 ul). Beads are allowed to settle overnight, and samples are imaged on Viewlux (PerkinElmer).\nThe data for compound concentration responses were plotted as % Inhibition, calculated with the data reduction formula 100*(1−[(U1−C2)/(C1−C2)]), versus concentration of compound, where\nData were fitted to the curve described by:\nTR-FRET Kinase Assay of Purified hPDK1:\nAssays are performed in 384-well microtiter plates (Greiner, Catalog No. 784076).\nAs previously described for the Scintillation Proximity protocol, hPDK1 is pre-incubated (30 minutes at room temperature) with compounds before initiating phosphorylation of AKT1 by addition of substrate to the hPDK1 and compound mix. Reactions are stopped after 4-6 hours at room temperature by the addition to final concentrations of 0.02 M EDTA, 0.0875 μM Streptavidin APC (PerkinElmer), 0.03 μM AKT1 (phospho T308) antibody (Abcam Inc.), 0.00375 μM Lance Eu-labeled anti rabbit IgG Antibody (PerkinElmer). Antibody binding reaches equilibrium in 30 minutes before signal is read on an EnVision™ 2103 Multilabel Reader (PerkinElmer). APC Signals are normalized to Europium signal. Data processing is the same as described for the Scintillation Proximity assay with the exception of the generation of the “C2” control by addition of buffer without hPDK1 to control wells at t=0 instead of EDTA.\nScintillation Proximity (LEADseeker) Kinase Assay of Purified hPDK1 using Biotinylated-PDKtide Peptide:\nAssays are performed in 384-well microtiter plates (Greiner, Catalog No. 784075). The reaction volume (10 μl) contains, in final concentrations, 25 mM MOPS (pH 7.5), 10 mM MgCl2, 50 mM KCl, 0.1 mg/ml BSA, 1 μM ATP, 3 uCi/ml ^33PγATP, 5 mM DTT, 0.5 mM CHAPS, 1 μM biotinylated-PDKtide peptide, and 0.5 nM hPDK1.\nCompounds, titrated in DMSO, are evaluated at eleven concentrations ranging from 25 μM to 0.4 pM. […] Reactions are stopped after 4 hours at room temperature by the addition of 50 mM EDTA, 5 mg/ml LEADseeker beads (GE Healthcare) in PBS (10 ul).", "units": {"IC50": "nM"}, "values": [{"smiles": "Nc1nc(NCc2ccccc2)cc(-c2ccc3c(N)n[nH]c3c2)n1", "note": "[Example 2, 6-(3-Amino-1H-indazol-6-yl)-N^4-(phenylmethyl)-2,4-pyrimidinediamine]", "IC50": "< 100"}, {"smiles": "Nc1nc(NCC2CCCCC2)cc(-c2ccc3c(N)n[nH]c3c2)n1", "note": "[Example 38, 6-(3-Amino-1H-indazol-6-yl)-N^4-(cyclohexylmethyl)-2,4-pyrimidinediamine]", "IC50": "< 100"}, {"smiles": "CC[C@@H]1CCCN1c1cc(-c2ccc3c(N)n[nH]c3c2)nc(N)n1", "note": "[Example 46, 6-{2-Amino-6-[(2R)-2-ethyl-1-pyrrolidinyl]-4-pyrimidinyl}-1H-indazol-3-amine]", "IC50": "< 150"}, {"smiles": "Nc1nc(NC2CC2)cc(-c2ccc3c(N)n[nH]c3c2)n1", "note": "[Example 51, 6-(3-Amino-1H-indazol-6-yl)-N^4-cyclopropyl-2,4-pyrimidinediamine]", "IC50": "< 100"}, {"smiles": "CCCNc1cc(-c2ccc3c(N)n[nH]c3c2)nc(N)n1", "note": "[Example 74, 6-(3-Amino-1H-indazol-6-yl)-N^4-propyl-2,4-pyrimidinediamine]", "IC50": "< 100"}, {"smiles": "CNc1nc(-c2ccc3c(N)n[nH]c3c2)cc(N2C[C@@H](C(=O)NCc3ccccc3)CC[C@H]2C)n1", "note": "[Example 80, (3S,6R)-1-[6-(3-Amino-1H-indazol-6-yl)-2-(methylamino)-4-pyrimidinyl]-6-methyl-N-(phenylmethyl)-3-piperidinecarboxamide]", "IC50": "< 20"}, {"smiles": "CNc1nc(-c2cc(F)c3c(N)n[nH]c3c2)cc(N2C[C@@H](C(=O)NC3CCCCC3)CC[C@H]2C)n1", "note": "[Example 85, (3S,6R)-1-[6-(3-Amino-4-fluoro-1H-indazol-6-yl)-2-(methylamino)-4-pyrimidinyl]-N-cyclohexyl-6-methyl-3-piperidinecarboxamide]", "IC50": "< 20"}, {"smiles": "CC1CCC(NC(=O)OC2CCCC2)CN1c1cc(-c2ccc3c(N)n[nH]c3c2)nc(N)n1", "note": "(stereo not drawn) [Example 120, Cis-cyclopentyl{1-[2-amino-6-(3-amino-1H-indazol-6-yl)-4-pyrimidinyl]-6-methyl-3-piperidinyl}carbamate]", "IC50": "< 50"}, {"smiles": "C[C@@H]1CC[C@H](C(=O)NC2CCCC2)CN1c1cc(-c2ccc3c(N)n[nH]c3c2)nc(N)n1", "note": "[Example 142, (3S,6R)-1-[2-amino-6-(3-amino-1H-indazol-6-yl)-4-pyrimidinyl]-N-cyclopentyl-6-methyl-3-piperidinecarboxamide]", "IC50": "< 20"}, {"smiles": "C[C@@H]1CC[C@H](C(=O)NCCc2ccccc2)CN1c1cc(-c2ccc3c(N)n[nH]c3c2)nc(N)n1", "note": "[Example 149, (3S,6R)-1-[2-Amino-6-(3-amino-1H-indazol-6-yl)-4-pyrimidinyl]-6-methyl-N-(2-phenylethyl)-3-piperidinecarboxamide]", "IC50": "< 20"}, {"smiles": "CC[C@@H]1COCCN1c1cc(-c2cc(NC3CCCC3)c3c(N)n[nH]c3c2)nc(NC)n1", "note": "[Example 181, N^4-Cyclopentyl-6-[6-[(3R)-3-ethyl-4-morpholinyl]-2-(methylamino)-4-pyrimidinyl]-1H-indazole-3,4-diamine]", "IC50": "< 150"}, {"smiles": "CCOc1cc(-c2cc(N3CCOC[C@H]3CC)nc(NC)n2)cc2[nH]nc(N)c12", "note": "[Example 184, 6-[6-[(3R)-3-Ethyl-4-morpholinyl]-2-(methylamino)-4-pyrimidinyl]-4-(ethyloxy)-1H-indazol-3-amine]", "IC50": "< 150"}, {"smiles": "CCOc1cc(-c2cc(N3CCOC[C@H]3C(C)C)nc(N)n2)cc2[nH]nc(N)c12", "note": "[Example 199, 6-{2-Amino-6-[(3R)-3-(1-methylethyl)-4-morpholinyl]-4-pyrimidinyl}-4-(ethyloxy)-1H-indazol-3-amine]", "IC50": "< 150"}, {"smiles": "COc1cc(-c2cc(N3CCOC[C@H]3C)nc(N)n2)cc2[nH]nc(N)c12", "note": "[Example 200, 6-{2-Amino-6-[(3R)-3-methyl-4-morpholinyl]-4-pyrimidinyl}-4-(methyloxy)-1H-indazol-3-amine]", "IC50": "< 150"}, {"smiles": "CNc1nc(-c2cc(OC)c3c(N)n[nH]c3c2)cc(N2CCC[C@@H](NC(=O)OC(C)(C)C)C2)n1", "note": "[Example 203, 1,1-Dimethylethyl{(3R)-1-[6-[3-amino-4-(methyloxy)-1H-indazol-6-yl]-2-(methylamino)-4-pyrimidinyl]-3-piperidinyl}carbamate]", "IC50": "< 50"}, {"smiles": "Nc1nc(-c2ccc3c(N)n[nH]c3c2)cc(N2CCC[C@@H](NC(=O)OC3CCC3)C2)n1", "note": "[Example 209, Cyclobutyl{(3R)-1-[2-amino-6-(3-amino-1H-indazol-6-yl)-4-pyrimidinyl]-3-piperidinyl}carbamate]", "IC50": "< 50"}, {"smiles": "Nc1nc(-c2ccc3c(N)n[nH]c3c2)cc(N2CCC[C@@H](N3CCOC3=O)C2)n1", "note": "[Example 211, 3-{(3R)-1-[2-Amino-6-(3-amino-1H-indazol-6-yl)-4-pyrimidinyl]-3-piperidinyl}-1,3-oxazolidin-2-one]", "IC50": "< 50"}, {"smiles": "CC(C)OC(=O)N[C@@H]1CCCN(c2cc(-c3ccc4c(N)n[nH]c4c3)nc(N)n2)C1", "note": "[Example 217, 1-Methylethyl{(3R)-1-[2-amino-6-(3-amino-1H-indazol-6-yl)-4-pyrimidinyl]-3-piperidinyl}carbamate]", "IC50": "< 50"}]}]}
